This note sets out measurements from patent US20210300924A1, “5-[6-[[3-(4,5,6,7-TETRAHYDROPYRAZOLO[4,3-C]PYRIDIN-1-YL)AZETIDIN-1-YL]METHYL]MORPHOLIN-4-YL]QUINOLINE-8-CARBONITRILE DERIVATIVES AND SIMILAR COMPOUNDS AS TLR7-9 ANTAGONISTS FOR TREATING SYSTEMIC LUPUS ERYTHEMATOSUS” (Hoffmann-La Roche Inc., priority 2018, published 2021).

The structures appear in SMILES notation. Where only a bound is given, the exact number is not on record here.

The target in one data set is T1, hERG channel (Homo sapiens, UniProt Q12809).
T1 construct: expressed in transfected cells; host or cells: CHO (Chinese hamster ovary), CHOhERG
T1 sequence (Q12809 whole entry): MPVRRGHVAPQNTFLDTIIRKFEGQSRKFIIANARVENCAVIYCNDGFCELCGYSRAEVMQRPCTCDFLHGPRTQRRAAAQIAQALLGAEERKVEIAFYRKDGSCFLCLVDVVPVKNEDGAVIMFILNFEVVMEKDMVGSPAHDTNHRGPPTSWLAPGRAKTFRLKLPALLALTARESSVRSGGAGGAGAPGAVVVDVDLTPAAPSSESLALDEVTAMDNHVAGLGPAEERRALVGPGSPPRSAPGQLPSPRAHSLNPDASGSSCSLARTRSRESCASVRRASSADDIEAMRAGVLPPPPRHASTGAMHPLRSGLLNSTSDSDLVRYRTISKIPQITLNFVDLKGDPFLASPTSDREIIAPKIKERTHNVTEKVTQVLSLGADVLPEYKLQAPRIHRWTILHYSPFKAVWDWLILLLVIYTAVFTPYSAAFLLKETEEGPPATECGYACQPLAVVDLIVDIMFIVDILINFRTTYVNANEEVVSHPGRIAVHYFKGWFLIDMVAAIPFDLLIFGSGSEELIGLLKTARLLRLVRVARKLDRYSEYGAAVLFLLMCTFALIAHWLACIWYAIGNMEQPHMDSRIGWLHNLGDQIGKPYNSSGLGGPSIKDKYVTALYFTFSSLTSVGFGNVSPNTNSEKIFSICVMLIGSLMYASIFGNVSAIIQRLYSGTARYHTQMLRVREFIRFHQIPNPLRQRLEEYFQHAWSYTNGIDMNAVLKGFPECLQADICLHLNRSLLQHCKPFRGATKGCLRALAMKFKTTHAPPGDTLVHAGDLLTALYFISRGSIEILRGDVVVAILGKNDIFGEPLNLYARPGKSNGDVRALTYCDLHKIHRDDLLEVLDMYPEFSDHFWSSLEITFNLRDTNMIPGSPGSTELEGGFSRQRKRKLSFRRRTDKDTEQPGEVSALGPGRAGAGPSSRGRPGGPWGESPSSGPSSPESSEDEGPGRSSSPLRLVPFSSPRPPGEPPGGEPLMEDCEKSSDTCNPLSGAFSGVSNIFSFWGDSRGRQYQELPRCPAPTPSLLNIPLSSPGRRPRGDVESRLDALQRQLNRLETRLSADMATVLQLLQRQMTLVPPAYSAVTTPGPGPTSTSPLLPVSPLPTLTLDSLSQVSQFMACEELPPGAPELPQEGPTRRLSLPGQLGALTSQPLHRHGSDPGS
Kind of data set: hERG channel inhibition assay (patch-clamp, CHOhERG cells). The format is cell-based.

For another data set, the target named is T2, TLR9 (Homo sapiens, UniProt Q9NR96).
T2 sequence (Q9NR96 26-1032): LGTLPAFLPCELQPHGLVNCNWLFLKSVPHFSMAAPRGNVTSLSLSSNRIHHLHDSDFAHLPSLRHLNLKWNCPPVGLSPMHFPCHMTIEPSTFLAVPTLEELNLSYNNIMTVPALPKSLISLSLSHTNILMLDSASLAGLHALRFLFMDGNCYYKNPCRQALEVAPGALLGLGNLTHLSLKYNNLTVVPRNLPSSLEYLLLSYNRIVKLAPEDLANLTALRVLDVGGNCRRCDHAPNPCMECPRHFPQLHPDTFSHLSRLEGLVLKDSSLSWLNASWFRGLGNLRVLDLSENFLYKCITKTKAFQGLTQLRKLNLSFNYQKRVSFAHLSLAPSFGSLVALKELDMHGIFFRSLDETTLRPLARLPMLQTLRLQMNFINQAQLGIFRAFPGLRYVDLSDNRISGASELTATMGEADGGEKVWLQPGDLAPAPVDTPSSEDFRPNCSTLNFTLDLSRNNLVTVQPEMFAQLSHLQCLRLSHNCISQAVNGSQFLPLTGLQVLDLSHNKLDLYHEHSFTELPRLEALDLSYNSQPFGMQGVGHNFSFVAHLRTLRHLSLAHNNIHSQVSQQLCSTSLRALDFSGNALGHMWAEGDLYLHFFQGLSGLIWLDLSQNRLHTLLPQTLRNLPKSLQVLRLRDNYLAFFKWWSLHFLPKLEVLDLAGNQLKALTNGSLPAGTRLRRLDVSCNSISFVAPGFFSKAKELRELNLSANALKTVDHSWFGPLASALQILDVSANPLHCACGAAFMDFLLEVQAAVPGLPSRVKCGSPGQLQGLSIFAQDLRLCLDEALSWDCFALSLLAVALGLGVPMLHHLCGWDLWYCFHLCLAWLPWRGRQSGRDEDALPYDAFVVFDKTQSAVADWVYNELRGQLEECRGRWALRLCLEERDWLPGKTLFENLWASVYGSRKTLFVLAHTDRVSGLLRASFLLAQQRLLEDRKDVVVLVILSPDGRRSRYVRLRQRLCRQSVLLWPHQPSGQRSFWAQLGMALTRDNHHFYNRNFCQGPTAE
Briefly: Human PBMC cell-based assay. The note with it: CpG ODN 2216 stimulation, overnight, cytokine readout, read-out: hPBMC/TLR9 IC50. The arrangement: endogenous in cells; host or cells: human PBMC from healthy donor whole blood. The procedure, abridged: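 Fresh healthy-donor human PBMC, 3×10^5 cells/well in RPMI-1640 with 10% FBS, preincubated 30 min at 37° C with antagonist (1% DMSO final). TLR9 stimulated with CpG ODN 2216, overnight at 37° C. Supernatant cytokines measured by Luminex or ELISA; viability by CellTiter-Glo.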

The mark [1] stands for this setting: safety ratio, >30 suggests sufficient window.

The compound `C[C@@H]1CN(c2ccc(C#N)c3ncccc23)C[C@H](CN2CC(n3cc4c(n3)[C@@H](C)NCC4)C2)O1` (single isomer, unassigned) [Example 33] displayed an IC50 against hERG channel (CHOhERG cells, whole-cell patch-clamp) of more than 20 µM. In addition, on hERG channel (human, CHO cells stably expressing hERG (CHOhERG cells), CHOhERG cells, whole-cell patch-clamp), the IC20 (as a rule, the point of the concentration-response curve where the effect stands at 20%) is more than 10 µM. On hERG channel (setting [1]), the “hERG IC20/TLR7 IC50” value is more than 1369.9, the “hERG IC20/TLR8 IC50” value is reported as more than 763.4 and the “hERG IC20/TLR9 IC50” value is reported as more than 291.5. Also, the IC50 at TLR9 came out at 0.072 µM.
